Test results taken from patent US6376510B1, “Neuromuscular relaxants” (Newlaxant LLC, priority 1997, dated 2002).
Like-named read-outs stand apart in the source and are kept apart here.

Assays:
[1] = system: anesthetized cats (evoked responses of anterior tibial muscle); assay: animal or person; settings: for RI (recovery index): spontaneous recovery, 25-75% neuromuscular response; for Onset: time to 80-85% neuromuscular block
Outline: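 Adult cats anesthetized i.p. with 70 mg/kg alpha chloralose plus 0.5 g/kg ethylurethane; agents in saline given i.v. Anterior tibial muscle responses to supramaximal single or train-of-four stimuli of sciatic or peroneal nerve recorded electromyographically and mechanomyographically, alongside blood pressure and heart rate.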

[2] = system: anesthetized monkeys; assay: In vivo neuromuscular block and cardiovascular side effects, monkey (Example 8, Table 6); settings: for ED50: intravenous dose causing 50% neuromuscular block; for RI (recovery index): spontaneous recovery, 25-75% neuromuscular response; for Onset: time to 80-85% neuromuscular block
Outline: (§1)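 Electromyographic and mechanomyographic responses quantified. Monkeys sedated with intramuscular ketamine, then general anesthesia with intravenous pentobarbital and propofol; juvenile pigs induced with inhaled halothane.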

[3] = system: rabbits; assay: In vivo neuromuscular block and cardiovascular side effects, rabbit (Example 8, Table 7); settings: for ED50: intravenous dose causing 50% neuromuscular block; for RI (recovery index): spontaneous recovery, 25-75% neuromuscular response; for Onset: time to 80-85% neuromuscular block
[4] = system: anesthetized rats (evoked responses of anterior tibial muscle); assay: In vivo neuromuscular block and cardiovascular side effects, anesthetized rat (Example 8, Table 3); settings: for VB (vagal block) / ΔBP (change in arterial blood pressure) / ΔH (change in heart rate): at 80-85% neuromuscular blocking dose; for RI (recovery index): spontaneous recovery, 25-75% neuromuscular response; for Onset: time to 80-85% neuromuscular block
Outline: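 Pentobarbital-anesthetized (i.p.), ventilated adult male rats given saline-dissolved agents i.v.; anterior tibial EMG responses to supramaximal single or train-of-four sciatic/peroneal stimuli, plus 0.1 or 1 Hz stimulation. Doses for 50%, 80%, 90% block derived. Onset: minutes to 80-85% block; RI: 25-75% spontaneous recovery; vagal block, heart rate and blood pressure changes (%) at 80-85% blocking dose.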

[5] = system: dogs; assay: animal or person; assay type: in vivo; settings: dog; for ED50: intravenous dose causing 50% neuromuscular block; for RI (recovery index): spontaneous recovery, 25-75% neuromuscular response; for Onset: time to 80-85% neuromuscular block
[6] = system: anesthetized juvenile pigs; assay: animal or person; assay type: in vivo; settings: pig; for ED50: intravenous dose causing 50% neuromuscular block; for RI (recovery index): spontaneous recovery, 25-75% neuromuscular response; for Onset: time to 80-85% neuromuscular block
Outline: as §1

[7] = cat, at 80-85% neuromuscular blocking dose
[8] = at 80-85% neuromuscular blocking dose

Compound: COc1cc(C[N+]2(C)C3CCC2CC(OC(=O)C2C4C=CC(C4)C2C(=O)OC2CC4CCC(C2)[N+]4(C)Cc2ccc(OC(C)=O)c(OC)c2)C3)ccc1OC(C)=O.[Br-].[Br-] (stereo not drawn) [bis[N-(4-acetoxy-3-methoxybenzyl)tropanium-3α-yl]trans-3,6-endomethylene-1,2,3,6-tetrahydrophthalate dibromide]
- ED50 ([1]; cat, intravenous dose causing 50% neuromuscular block): 0.193 mg/kg
- RI (recovery index) ([1]; cat): 0.4 min
- Onset ([1]; cat): 0.7 min
- VB (vagal block) ([1]; in vivo): 20%
- ΔBP (change in arterial blood pressure) ([1]; in vivo): 0%
- ΔH (change in heart rate) ([1]; in vivo): 5%
- ΔBP (change in arterial blood pressure) ([2]; in vivo): 0%
- ΔH (change in heart rate) ([2]; in vivo): 0%
- ED50 [2]: 0.055 mg/kg
- RI (recovery index) [2]: 0.5 min
- Onset [2]: 0.85 min
- ΔBP (change in arterial blood pressure) ([3]; in vivo): 0%
- ΔH (change in heart rate) ([3]; in vivo): 0%
- ED50 [3]: 0.155 mg/kg
- RI (recovery index) [3]: 0.65 min
- Onset [3]: 0.65 min
- VB (vagal block) ([4]; rat): 25%
- ΔBP (change in arterial blood pressure) ([4]; rat): 0%
- ΔH (change in heart rate) ([4]; rat): 0%
- ED50 ([4]; rat, intravenous dose causing 50% neuromuscular block): 0.15 mg/kg
- RI (recovery index) ([4]; rat): 0.5 min
- Onset ([4]; rat): 0.55 min
- ΔBP (change in arterial blood pressure) ([5]; in vivo): −25%
- ΔH (change in heart rate) ([5]; in vivo): 40%
- ED50 [5]: 0.35 mg/kg
- RI (recovery index) [5]: 0.5 min
- Onset [5]: 0.63 min
- VB (vagal block) ([6]; in vivo): 43%
- ΔBP (change in arterial blood pressure) ([6]; in vivo): 0%
- ΔH (change in heart rate) ([6]; in vivo): 0%
- ED50 [6]: 0.19 mg/kg
- RI (recovery index) [6]: 1 min
- Onset [6]: 0.6 min

Compound: CC(=O)Oc1ccc(C[N+]2(C)[C@@H]3CC[C@H]2C[C@@H](OC(=O)C2CCCC(C(=O)O[C@H]4C[C@H]5CC[C@@H](C4)[N+]5(C)Cc4ccc(OC(C)=O)c(OC(C)=O)c4)C2)C3)cc1OC(C)=O.[Br-].[Br-] (stereo partly drawn) [bis[N-(3,4-diacetoxybenzyl)tropanium-3α-yl]cyclohexane-1,3-dicarboxylate dibromide]
- ED50 ([1]; Felis catus, iv): 0.11 mg/kg
- VB (vagal block) [1, 7]: 34%
- ΔBP (change in arterial blood pressure) [1, 7]: −25%
- ΔH (change in heart rate) [1, 7]: −12%
- RI (recovery index) ([1]; cat): 0.5 min
- Onset ([1]; cat): 0.8 min
- ED50 ([2]; Primates, read-out: ED50): 0.075 mg/kg
- ΔBP (change in arterial blood pressure) [2, 8]: 0%
- ΔH (change in heart rate) [2, 8]: 0%
- RI (recovery index) [2]: 0.65 min
- Onset [2]: 0.95 min
- ED50 ([3]; Oryctolagus cuniculus, read-out: ED50): 0.1 mg/kg
- ΔBP (change in arterial blood pressure) [3, 8]: 0%
- ΔH (change in heart rate) [3, 8]: 0%
- RI (recovery index) [3]: 0.7 min
- Onset [3]: 0.9 min
- ED50 ([4]; Rattus norvegicus, iv): 0.24 mg/kg
- VB (vagal block) ([4]; rat): 28%
- ΔBP (change in arterial blood pressure) ([4]; rat): 0%
- ΔH (change in heart rate) ([4]; rat): 0%
- RI (recovery index) ([4]; rat): 0.5 min
- Onset ([4]; rat): 0.65 min
- ED50 ([5]; Canis lupus familiaris, read-out: ED50): 0.128 mg/kg
- ΔBP (change in arterial blood pressure) [5, 8]: −5%
- ΔH (change in heart rate) [5, 8]: 30%
- RI (recovery index) [5]: 0.55 min
- Onset [5]: 0.75 min
- ED50 ([6]; Sus scrofa, read-out: ED50): 0.225 mg/kg
- VB (vagal block) [6, 8]: 54%
- ΔBP (change in arterial blood pressure) [6, 8]: 0%
- ΔH (change in heart rate) [6, 8]: 0%
- RI (recovery index) [6]: 0.85 min
- Onset [6]: 0.8 min
